Measurements reported in US11117932B2, “Peptides for specific inhibition of Jag 1-Notch 1 pathway” (The Hong Kong Polytechnic University, priority 2018, dated 2021).
Read-outs that look alike come from different tables or passages of the source. Residues, ends and D or L forms follow the SMILES beside them.

Experiments:
S1-M1-80 cells [1] = test: Clonogenicity assay, S1-M1-80; type: cell-based, human; conditions: for colony formation, combination with TPT: S1-M1-80, combined with 1 μM of TPT (DAPT 1 μM)
Protocol: The procedure for colony formation assay consists of following steps. An appropriate number of cells per well were seeded on a 6-well plate in duplicate. The number of cells for seeding should be related to the aggressiveness of the treatment. The cells were incubated for 12 hours in a CO2 incubator at 37° C. and allow cells to attach to the plate. The cells were treated with peptides or (DAPT) to required concentrations. The cells were incubated in a in a CO2 incubator at 37° C. for about 10 days until cells in control well have formed colonies which are of a substantially good size (the minimum score is 100 cells per colony). After the incubation, the medium was removed and cells were rinsed with 5 ml 1×PBS (phosphate buffered saline. pH 7.2). The cells were then fixed with 1 ml methanol at room temperature for 10 min. After fixation, the cells were stained with 0.5% crystal violet solution and incubated at room temperature for 1 h. After staining, the plates were immersed in deionized water to rinse off crystal violet and air-dried at room temperature for overnight. The dry plates were pictured with scanner. The number of colonies in each well was counted by cell counter software.

Jag1-induced NICD1 = test: Co-culture assay, Jag1-induced NICD1 level; type: cell-based, human; conditions: N1 at 50 μM
Protocol: (§1) Specificity of N1 (SEQ ID NO: 10) peptide in inhibiting different Notch ligand-induced Notch signaling was investigated using in vitro co-culture assay. HEK293T or CHO cells expressing Notch ligand (either Jag1, DLL1 or DLL4) are co-cultured with Notch1- or Notch2-expressing cells. Notch1 and Notch2 signalling can be measured by either luciferase reporter assay or by the formation of NICD1 and NICD2. […] Half inhibition is reached at between 50 to 100 μM. […] This contrasts with DAPT which affects all the above interactions.
(§2) The cleaved Notch1 (Val1744) (D3B8) rabbit monoclonal antibody (CST) and Notch2 (Cleaved Ala1734) rabbit monoclonal antibody at 1:1000 dilution were used to detect human Notch intracellular domain (NICD1) and Notch2 intracellular domain (NICD2), respectively. β-actin was detected using a mouse monoclonal antibody (Santa Cruz Biotechnology) at 1:3000 dilution.

NICD1 [2] = test: NICD1 formation in HCT-15; type: cell-based, human; conditions: peptides 100 μM
Protocol: (§3) This panel of peptides was also tested for their cytotoxic activities against two human colorectal cell lines (HCT-116 and HCT-15). At a concentration of 100 μM, N1 (SEQ ID NO: 10) is the only peptide that is cytotoxic to HCT-116 and HCT-15 cells (FIGS. 2B and C). Notch signaling results in the release of NICD1 from the membrane-bound Notch receptor.
as §2

NICD2 = test: Co-culture assay, NICD2 formation (Jag1-Notch2); type: cell-based, human
Protocol: as §1, §2

DLL1-Notch1 signalling = test: Co-culture Notch luciferase reporter assay, DLL1-induced; type: cell-based, human; conditions: DAPT 50 μM
Protocol: as §1
(§4) HEK-293T-Jagged-1 cells were seeded in 24-well plates in triplicate per sample group, and human HCT-116 cells were seeded in one 60 mm dish. Cells were allowed to settle, and were transfected the following day after the medium was changed to be antibiotic free. HCT-116 cells were transfected with 12×CSL-Luc and Renilla-Luc, using Lipofectamine® 3000 (Invitrogen™), according to the manufacturer's instructions. After 24 hours, HCT-116 cells were scraped and 2.5×10^4 cells in 1 mL complete medium per well were added to both 24-well plates. Peptides were treated to cells with the desired concentrations. N—[N-(3,5-difluorophenacetyl)-L-alanyl]-S-phenylglycine t-butyl ester (DAPT) was used as positive control. Cells were co-cultured for 12 hours before measure the luciferase activity. After incubation, cells were lysed with luciferase lysis buffer. Notch activity in cells expressing the 12×CSL-Luc reporter construct was measured by a luciferase assay using Dual-Luciferase® Reporter Assay System (Promega).

DLL4-Notch1 signalling = test: Co-culture Notch luciferase reporter assay, DLL4-induced; type: cell-based, human; conditions: DAPT 50 μM
Protocol: as §1, §4

NICD1 [3] = test: NICD1 formation in HCT-116; type: cell-based, human; conditions: peptides 100 μM
Protocol: as §3, §2

S1 = test: cells; type: cell-based, human
Protocol: (§5) HCT-116, HCT-15, S1-M1-80, S1, L929, HEK293T-Jagged-1 were seeded in each well of a 96-well plate with a series of concentrations (a serial dilution from 1000μM to 0.5 μM) of peptides or drugs including DAPT, Topotecan at 37° C. with 5% CO2 in a humidified incubator for 3 days. Percentage of survival was determined by MTS assay as described.

S1-M1-80 cells [4] = test: cells; type: cell-based, human
Protocol: as §5

DLL4-induced NICD1 = test: Co-culture assay, DLL4-induced NICD1 level; type: cell-based, human
Protocol: as §1, §2

DLL1-induced NICD1 = test: Co-culture assay, DLL1-induced NICD1 level; type: cell-based, human
Protocol: as §1, §2

Jag1-Notch1 signalling = test: Co-culture Notch luciferase reporter assay, Jag1-induced; type: cell-based, human; conditions: for inhibition of Jag1-induced Notch1 signalling, dose response: reporter assay, DAPT 50 μM; for inhibition of Jag1-induced Notch signaling compared with N1: peptides 25 μM
Protocol: Jag1-Notch interaction is measured using a co-culture assay with one cell line expressing the Notch ligand Jagged1 (Jag1) and a second expressing Notch (either Notch1 or Notch2). A firefly luciferase reporter plasmid with 12 upstream CBF-1 binding site was transfected into signalling-receiving cells to report on Notch signalling (FIG. 1D). Peptides were tested for their activity in inhibiting Jag1-induced Notch signalling. Complete inhibition is equivalent to the background signal seen without induction (−Jag1). […] N1 (SEQ ID NO: 10) is a 15-mer derived from the EGF-like repeat 12 of Notch1 (C467-G481). This is consistent with the structural information that EGF-like repeat 12 of Notch1 is near the MNNL domain of Jag1 (FIGS. 1B and C).
as §1, §4

HEK-293T-Jagged-1 cells = type: cell-based, human
Protocol: as §5

in vitro = type: cell-based; conditions: mouse
Protocol: as §5

NICD1 [5] = test: NICD1 formation in S1-M1-80; type: cell-based, human; conditions: 10 μM
Source text: as §2

| inhibition of DLL1-Notch1 signalling (DLL1-Notch1 signalling) | inhibition of DLL4-Notch1 signalling (DLL4-Notch1 signalling) | IC50 at 3 days (in vitro) [µM] | IC50 (S1-M1-80 cells [4]) [µM] | IC50 (S1) [µM] | inhibition of Jag1-induced Notch signaling compared with N1 (Jag1-Notch1 signalling) | Structure (SMILES) | colony formation, combination with TPT (S1-M1-80 cells [1]) [colonies/well] | colony formation (S1-M1-80 cells [1]; S1-M1-80, single agent 10 μM) [colonies/well] | Jag1-induced NICD1 level (Jag1-induced NICD1) | inhibition of Jag1-induced Notch1 signalling, dose response (Jag1-Notch1 signalling) | IC50 (HEK-293T-Jagged-1 cells) [µM] | also measured |
| --- | --- | --- | --- | --- | --- | --- | --- | --- | --- | --- | --- | --- |
| can inhibit all signaling | can inhibit all signaling |  |  |  |  | C[C@H](NC(=O)Cc1cc(F)cc(F)c1)C(=O)N[C@H](C(=O)OC(C)(C)C)c1ccccc1 [DAPT, N—[N-(3,5-Difluorophenacetyl)-L-alanyl]-S-phenylglycine t-butyl ester, reference compound] | 1074 | 717 | equally effective in inhibiting both NICD1 and NICD2 | can inhibit all signaling |  | NICD1 formation in HCT-15 (NICD1 [2]): almost complete elimination of NICD1; NICD2 formation (NICD2): equally effective in inhibiting both NICD1 and NICD2; NICD1 formation in HCT-116 (NICD1 [3]): almost complete elimination of NICD1; IC50 (S1; S1 cells, 3 days, MTS, read-out: IC50 (μM) S1): > 100 µM; IC50 (S1-M1-80 cells [4]; S1-M1-80 cells, 3 days, MTS, read-out: IC50 (μM) s1-m1-80): 17.1 ± 0.4 µM; DLL4-induced NICD1 level (DLL4-induced NICD1): can inhibit both; DLL1-induced NICD1 level (DLL1-induced NICD1): can inhibit both |
|  |  | > 100 | 14.9 ± 4.8 |  |  | CC[C@H](C)[C@H](NC(=O)[C@H](CCC(N)=O)NC(=O)[C@H](CC(=O)O)NC(=O)[C@H](CC(C)C)NC(=O)[C@H](CS)NC(=O)[C@@H](N)Cc1ccc(O)cc1)C(=O)NCC(=O)N[C@@H](CCC(=O)O)C(=O)N[C@@H](Cc1ccccc1)C(=O)N[C@@H](CCC(N)=O)C(=O)N[C@@H](CS)C(=O)N[C@H](C(=O)N[C@@H](CS)C(=O)N[C@@H](CCC(=O)O)C(=O)O)[C@@H](C)CC [N102T466Y-M479E, YCLDQIGEFQCICE] (H-YCLDQIGEFQCICE-OH; N-terminus and C-terminus assumed) |  |  |  |  | > 100 |  |
| did not interfere | did not interfere | > 100 | 5.8 ± 0.2 | > 50 | biggest improvement | CC[C@H](C)[C@H](NC(=O)[C@H](CCC(N)=O)NC(=O)[C@H](CC(=O)O)NC(=O)[C@H](CC(C)C)NC(=O)[C@@H](N)CS)C(=O)NCC(=O)N[C@@H](CCC(=O)O)C(=O)N[C@@H](Cc1ccccc1)C(=O)N[C@@H](CCC(N)=O)C(=O)N[C@@H](CS)C(=O)N[C@H](C(=O)N[C@@H](CS)C(=O)N[C@@H](CC(=O)O)C(=O)O)[C@@H](C)CC [Peptide N102M479D, CLDQIGEFQCICD] (H-CLDQIGEFQCICD-OH; N-terminus and C-terminus assumed) |  |  | significantly decreased expression level of NICD1 | inhibited Jag1-induced Notch1 signaling in dose dependent manner | > 100 |  |
| did not interfere | did not interfere | > 100 | 4.9 ± 0.2 | > 30 | biggest improvement | CC[C@H](C)[C@H](NC(=O)[C@H](CCC(N)=O)NC(=O)[C@H](CC(=O)O)NC(=O)[C@H](CC(C)C)NC(=O)[C@@H](N)CS)C(=O)NCC(=O)N[C@@H](CCC(=O)O)C(=O)N[C@@H](Cc1ccccc1)C(=O)N[C@@H](CCC(N)=O)C(=O)N[C@@H](CS)C(=O)N[C@H](C(=O)N[C@@H](CS)C(=O)N[C@@H](CCC(=O)O)C(=O)O)[C@@H](C)CC [Peptide N102M479E, CLDQIGEFQCICE] (H-CLDQIGEFQCICE-OH; N-terminus and C-terminus assumed) | 581 | 84 | significantly decreased expression level of NICD1 | inhibited Jag1-induced Notch1 signaling in dose dependent manner | > 100 | colony formation of S1-M1-80, dose response (S1-M1-80 cells [1]): effectively reduced colony formation; colony formation of S1-M1-80 (S1-M1-80 cells [1]; 1 μM): reduced by half; more potent than DAPT (colony formation) (S1-M1-80 cells [1]; 1 μM): 14%; colony formation of S1-M1-80 (S1-M1-80 cells [1]; 5 μM): almost eliminated the formation of all colonies; colony formation of S1-M1-80 (S1-M1-80 cells [1]; 10 μM): completely eliminated the formation of colonies; colony formation (S1-M1-80 cells [1]; S1-M1-80, single agent 1 μM): 925 colonies/well; effect with topotecan on colony formation of S1-M1-80 (S1-M1-80 cells [1]; TPT plus N102M479E): synergistic; increase of potency over TPT-DAPT combination (colony formation) (S1-M1-80 cells [1]; combined with 1 μM of TPT): 19%; NICD1 formation in S1-M1-80 cells (NICD1 [5]): totally suppress NICD1 formation |
